Numbered stars: 1 amine (or outer) side, 2 acyl side, 3 side chain; on linkers, the order of the positions; unused ones are H or OH. Bridge positions count the residues as written; N and C are the ends. Square brackets hold non-standard residues; d marks the D form. Peptide text beside a SMILES is read from it. I, II: the chains in the order shown. Actinocin(9to1) = Cc1c2oc3c(C)ccc(C(=O)[*:1])c3nc-2c(C(=O)[*:2])c(N)c1=O; NMeV = CN[C@H](C(=O)O)C(C)C; Sar = CNCC(=O)O
Legend:
[1] = test system: BUBR1 mRNA; assay: BUBR1 mRNA stability assay with Actinomycin D; format: cell-based, human; conditions: Fig. 4h, +Act D (shCtrl+Act D or shPTBP1#1+Act D), shCtrl = 1
Experimental: RNA preparation was performed as described. Total RNA was extracted using Trizol reagent (TaKaRa) following the manufacturer’s instructions. cDNA was generated with M-MLV reverse transcriptase (Promega, catalog no. M170B). Reverse transcription with PCR (RT-PCR) was performed with SYBR Green Real-Time PCR Master Mix (TaKaRa). RT-PCR was carried out on a QuantStudio 3 Real-Time-PCR Instrument (ABI). Data were analyzed and further processed in QuantStuido Design and Analysis Software and GraphPad Prism v.7. Fold change in gene expression over control samples was calculated using the 2^–ΔΔCt method, where β-actin Ct values were used as an internal control. The primer sequences for PCR, synthesized by Comate Bioscience, were as follows: […]

[2] = test system: HGADFN003 cells; assay: SA-β-gal staining of HGADFN003 cells; format: cell-based, human; conditions: Fig.1m, HGADFN003, Vector 65, 68, 69, 65, P<0.0001
Experimental: (§1) SA-β-gal staining was performed as previously described. Cells were fixed in 0.5% glutaraldehyde for 15 min at room temperature, washed three times with PBS (pH 6.0) containing 1 mM MgCl2 and exposed overnight 37 °C to containing 1 mg ml^–1 5-bromo-4-chloro-3-indolyl-β-D-galactopyranoside (MCE, catalog no. HY-15934), 0.12 mM potassium ferrocyanide (Sigma, catalog no. P3289), 0.12 mM potassium ferricyanide (Sigma, catalog no. P8131) and 1 mM MgCl2 PBS buffer (pH 6.0). Cells were washed three times with H2O and observed under a microscope (OLYMPUS CKX53). SA-β-gal positive cells were quantified by investigators who were blinded to the identity of the analyzed cell.

[3] = test system: HGADFN003 cells; assay: Ki67 immunofluorescence of HGADFN003 cells; format: cell-based, human; conditions: Fig.1o, HGADFN003, Vector 45, 38, 49, P=0.0031
Experimental: (§2) Immunofluorescence was performed as described previously. Cells were plated on cover slips in 12-well plates, left overnight before the treatment. Cells were fixed in 1% formaldehyde in culture medium for 10 min at 37 °C and permeabilized with 0.2% Triton X-100 in PBS for 10 min at room temperature. Cells were washed twice in PBS and blocked for 1 h with 5% BSA in PBS and then incubated with primary antibodies at 4 °C overnight, washed three times in PBS and incubated with secondary antibodies for 1 h at room temperature. Cell nuclei were counterstained with a 500 nM concentration of 4,6-diamidino-2-phenylindole (DAPI) (Sigma). Images were acquired by a fluorescence microscope (OLYMPUS FV-1000, Carl Zeiss LSM880 or Leica DMi8) and analyzed with software NIS-Elements AR v.5.0.1 (Nikon), FLUOVIEW v.4.2b (OLYMPUS), ZEN v.2.3 SP1 (Carl Zeiss) and Leica Application Suite X v.3.6.0.24 (Leica). Cells were quantified by investigators who were blinded to the identity of the analyzed cell.

[4] = test system: IMR90 cells; assay: Ki67 immunofluorescence of IMR90 cells; format: cell-based, human; conditions: Fig.1k, IMR90
Experimental: as §2

[5] = test system: IMR90 cells; assay: SA-β-gal staining of IMR90 cells (progerin, BUBR1, shBUBR1); format: cell-based, human; conditions: Fig.1i
Experimental: as §1

[6] = test system: IMR90 and HGADFN003 cells; assay: Metaphase chromosome spread assay, aneuploid cells; format: cell-based, human
Experimental: For the metaphase chromosome spread assay, 1.5 × 10^6 cells were seeded in a 6 cm dish and incubated for 24 h with fresh medium. Then, colchicine was added to a final concentration of 0.2 μg ml^–1 and the cells were incubated at 37 °C for 2 h. After digestion, we collected and rinsed the cells with PBS. The cells were centrifuged at 160g for 10 min. Then, 1 M KCl was added to a final concentration of 0.075 mol l^–1 and the samples were incubated at 37 °C for 20 min. The cells were centrifuged, and the supernatant aspirated. The pellet was resuspended, and 1 ml methanol:glacial acetic acid (3:1) solution was added. The sample was rested at room temperature for 10 min. Then, the cells were centrifuged at 160g for 10 min. The supernatant was aspirated, and the pellet resuspended in 1 ml fixative for 30 min. The cells were centrifuged and the pellet was suspended in 1 ml fixative again for 30 min. The cells were centrifuged at 160g for 10 min and the supernatant aspirated. The pellet was then resuspended in a small volume of fixative (typically less than 500 μl) until the cell suspension appeared lightly milky. A small quantity of the cell suspension was held vertically in a pipette with the end about 10 cm above the slide. A single drop was released from this height onto the slide and allowed to air dry. The cells were then incubated with 500 nM of DAPI (Invitrogen) for 10 min. Slides were examined with an Olympus BX53 fluorescence microscope and the images were captured by using the Olympus IPP v.7.0 software. Aneuploid cells were quantified by investigators who were blinded to the identity of the analyzed cell.

[7] = test system: PTBP1–BUBR1 mRNA 3′-UTR; assay: RIP assay of PTBP1 and BUBR1 mRNA 3′-UTR in HEK-293T cells; format: cell-based
Experimental: RIP and RNA pulldown assays were performed as previously described. The RIP experiment was carried out using the EZ-Magna RIP Kit (Millipore, catalog no. 17-701). The coprecipitated RNAs were extracted through Trizol reagent and detected by RT-PCR. The primer sequences for PCR, synthesized by Comate Bioscience, were as follows:
BUBR1-3′UTR_fwd (5′-[…]-3′) and BUBR1-3′UTR_rev (5′- […]-3′).

[8] = test system: BUBR1 mRNA 3ʹ-UTR; assay: Luciferase activity assay of BUBR1 mRNA 3ʹ-UTR in HEK-293T cells; format: cell-based; conditions: Fig. 4k, Vector = 1, P=0.0012
Experimental: The experiments were performed as described previously. The BUBR1 (–1,200 to +100) promoter or the DNA fragment of BUBR1 mRNA 3′-UTR was inserted into the pGL4.20 vector. Cells were plated in 24-well plates. After 24 h, cells were cotransfected with 200 ng of the indicated firefly luciferase reporter plasmid and 50 ng of Renilla luciferase normalization control plasmid using PEI. At 48 h after transfection, cell lysates were collected to measure luciferase activity using the Dual-Luciferase Reporter Assay System (Promega, catalog no. E1910) according to the manufacturer’s instructions. Luciferase reporter assay was carried out on an TD-20/20 Turner Designs luminometer, data were analyzed and further processed in Microsoft Excel and GraphPad Prism v.7.

[9] = test system: progerin–BUBR1 interaction; assay: CoIP of progerin and BUBR1 in HEK-293T cells; format: cell-based; conditions: HEK-293T co-transfected with truncated mutants and HA-progerin
Experimental: Detailed descriptions of CoIP were described previously[55],[56]. Cells were harvested and washed three times in cold PBS, then lysed in CoIP buffer (25 mM Tris-HCl (pH 7.5), 150 mM KCl, 5 mM EDTA, and 0.5% NP-40) plus protease inhibitor cocktail tablet (Roche). Incubate on ice and shock lysates on the vortex shaker 15 times for 30 s each. Microcentrifuge in 12,000g for 15 min at 4 °C, collect the supernatant, and incubate with 3 μg primary antibodies with gentle shaking overnight at 4 °C, followed by adding 20–40 μl Pure Proteome Protein A/G Mix Magnetic Beads (Millipore, catalog no. […]02) for 3 h. Wash the beads three times with 1 ml CoIP buffer for 8 min each, resuspend in 50 μl 1× loading buffer, and incubate at 100 °C for 8 min. Throw beads away and analyze by immunoblotting.

Compound: Cc1c2oc3c(C)ccc(C(=O)N[C@@H]4C(=O)N[C@H](C(C)C)C(=O)N5CCC[C@H]5C(=O)N(C)CC(=O)N(C)[C@@H](C(C)C)C(=O)O[C@@H]4C)c3nc-2c(C(=O)N[C@@H]2C(=O)N[C@H](C(C)C)C(=O)N3CCC[C@H]3C(=O)N(C)CC(=O)N(C)[C@@H](C(C)C)C(=O)O[C@@H]2C)c(N)c1=O [ActD] (I: T[dV]P[Sar][NMeV] / II: T[dV]P[Sar][NMeV]; ester I:1-I:C, II:1-II:C; linker I:N-II:N via Actinocin(9to1))
- BUBR1 relative (to β-actin) mRNA level (2-ΔΔCt) ([1]; replicate 1): 0.6794
- BUBR1 relative (to β-actin) mRNA level (2-ΔΔCt) ([1]; replicate 2): 0.7373
- BUBR1 relative (to β-actin) mRNA level (2-ΔΔCt) ([1]; replicate 3): 0.615

Compound: BUBR1
- Relative percentage of SA-β-gal positive cells ([2]; replicate 1): 48%
- Relative percentage of SA-β-gal positive cells ([2]; replicate 2): 49%
- Relative percentage of SA-β-gal positive cells ([2]; replicate 3): 50%
- Relative percentage of SA-β-gal positive cells ([2]; replicate 4): 42%
- Relative percentage of Ki67 positive cells ([3]; replicate 1): 78%
- Relative percentage of Ki67 positive cells ([3]; replicate 2): 74%
- Relative percentage of Ki67 positive cells ([3]; replicate 3): 67%
- Relative percentage of Ki67 positive cells ([4]; Vector 67, 75, 60, P vs Vector: BUBR1 0.803, progerin 0.0018, replicate 1): 64%
- Relative percentage of Ki67 positive cells ([4]; Vector 67, 75, 60, P vs Vector: BUBR1 0.803, progerin 0.0018, replicate 2): 78%
- Relative percentage of Ki67 positive cells ([4]; Vector 67, 75, 60, P vs Vector: BUBR1 0.803, progerin 0.0018, replicate 3): 65%
- Relative percentage of Ki67 positive cells ([4]; progerin+BUBR1, P=0.0042 vs progerin, replicate 1): 48%
- Relative percentage of Ki67 positive cells ([4]; progerin+BUBR1, P=0.0042 vs progerin, replicate 2): 51%
- Relative percentage of Ki67 positive cells ([4]; progerin+BUBR1, P=0.0042 vs progerin, replicate 3): 45%
- Relative percentage of SA-β-gal positive cells ([5]; Vector 2, 1, 2, P vs Vector: BUBR1 0.2302, progerin 0.0003, replicate 1): 3%
- Relative percentage of SA-β-gal positive cells ([5]; Vector 2, 1, 2, P vs Vector: BUBR1 0.2302, progerin 0.0003, replicate 2): 2%
- Relative percentage of SA-β-gal positive cells ([5]; Vector 2, 1, 2, P vs Vector: BUBR1 0.2302, progerin 0.0003, replicate 3): 2%
- Relative percentage of SA-β-gal positive cells ([5]; progerin+BUBR1, P=0.0026 vs progerin, replicate 1): 15%
- Relative percentage of SA-β-gal positive cells ([5]; progerin+BUBR1, P=0.0026 vs progerin, replicate 2): 18%
- Relative percentage of SA-β-gal positive cells ([5]; progerin+BUBR1, P=0.0026 vs progerin, replicate 3): 20%
- Relative percentage of aneuploid cells ([6]; Fig.1p, IMR90, Vector 6, 5, 8, replicate 1): 5%
- Relative percentage of aneuploid cells ([6]; Fig.1p, IMR90, Vector 6, 5, 8, replicate 2): 5%
- Relative percentage of aneuploid cells ([6]; Fig.1p, IMR90, Vector 6, 5, 8, replicate 3): 7%
- Relative percentage of aneuploid cells ([6]; Fig.1p, IMR90, progerin+BUBR1, replicate 1): 25%
- Relative percentage of aneuploid cells ([6]; Fig.1p, IMR90, progerin+BUBR1, replicate 2): 17%
- Relative percentage of aneuploid cells ([6]; Fig.1p, IMR90, progerin+BUBR1, replicate 3): 22%
- Relative percentage of aneuploid cells ([6]; Fig.1q, HGADFN003, Vector 29, 35, 32, P=0.0053, replicate 1): 21%
- Relative percentage of aneuploid cells ([6]; Fig.1q, HGADFN003, Vector 29, 35, 32, P=0.0053, replicate 2): 17%
- Relative percentage of aneuploid cells ([6]; Fig.1q, HGADFN003, Vector 29, 35, 32, P=0.0053, replicate 3): 14%

Compound: PTBP1
- PTBP1 enrichment on BUBR1-3'UTR (2-ΔΔCt) ([7]; Fig. 4i, IgG = 1, P=0.0086, replicate 1): 21.8107
- PTBP1 enrichment on BUBR1-3'UTR (2-ΔΔCt) ([7]; Fig. 4i, IgG = 1, P=0.0086, replicate 2): 40.6928
- PTBP1 enrichment on BUBR1-3'UTR (2-ΔΔCt) ([7]; Fig. 4i, IgG = 1, P=0.0086, replicate 3): 24.8579
- PTBP1 enrichment on BUBR1-3'UTR (2-ΔΔCt) ([7]; Fig. 4n, PTBP1, Vector = 1, P<0.0001 vs Vector, replicate 1): 12.7685
- PTBP1 enrichment on BUBR1-3'UTR (2-ΔΔCt) ([7]; Fig. 4n, PTBP1, Vector = 1, P<0.0001 vs Vector, replicate 2): 13.1604
- PTBP1 enrichment on BUBR1-3'UTR (2-ΔΔCt) ([7]; Fig. 4n, PTBP1, Vector = 1, P<0.0001 vs Vector, replicate 3): 13.6473
- Relative luciferase activity of BUBR1 3'UTR (PTBP1/Vector) ([8]; replicate 1): 3.3
- Relative luciferase activity of BUBR1 3'UTR (PTBP1/Vector) ([8]; replicate 2): 4
- Relative luciferase activity of BUBR1 3'UTR (PTBP1/Vector) ([8]; replicate 3): 3

Compound: progerin-C36: truncated progerin-C, aa residues 579–614, used for the design of UPCP (YNLRSRTVLCGTCGQPADKASASGSGAQSPQNCSIM)
- block of progerin–BUBR1 binding by truncated progerin-C [9]: could block the binding of progerin and BUBR1

Source: paper PMC10154249, “Unique progerin C-terminal peptide ameliorates Hutchinson–Gilford progeria syndrome phenotype by rescuing BUBR1” (Nature Aging, 2023)
